Laboratory results published in publication PMC7232165 (Viruses, 2020).
Like-named read-outs stand apart in the source and are kept apart here.

What was measured:
HIV-1NL4-3 = experiment: Anti-HIV-1 assay in TZM-GFP cells (LTR-activated GFP expression); settings: for EC50: read-out: EC50 (concentration of compound inhibiting HIV-1 replication by 50%); for antiviral activity against HIV-1 (in words): screened at 20 μM
[1] = HLMs; cited from earlier work
TZM-GFP cells = experiment: in vitro; type: cell-based; settings: for CC50: TZM-GFP cells, 72 h, XTT, mean ± standard deviation, read-out: CC50 (concentration of compound causing 50% cell death)
in vitro = type: cell-based; settings: human, TZM-GFP cells, 72 h, XTT; mean ± standard deviation; read-out: CC50 (concentration of compound causing 50% cell death)
[2] = biological target: covalently-crosslinked hexameric CA A14C/E45C/W184A/M185A (CA121) (Human immunodeficiency virus type 1 group M subtype B, UniProt P12493, A146C/E177C/M317A/W316A); experiment: Thermal shift assay (TSA) for effect on HIV-1 CA hexamer stability; type: binding; settings: compound 20 µM
[3] = Microsomal stability assay, mouse liver microsomes; type: in vitro ADME
[4] = Microsomal stability assay, human liver microsomes; type: in vitro ADME; settings: for half-life at 1 µM: human liver microsomes
[5] = Human immunodeficiency virus 1, 48 h

| SMILES | EC50 (HIV-1NL4-3; [5]) [µM] | CC50 at 72 h (in vitro) [µM] | further results |
| --- | --- | --- | --- |
| Cc1[nH]c2ccccc2c1CC(=O)N[C@@H](Cc1ccccc1)C(=O)N(C)c1ccccc1 [Compound 1, PF74, reference compound] | 0.61 ± 0.2 | – | half-life (t1/2) in human liver microsomes [1]: less than 1 min |
| COC(=O)C1CCCN1C(=O)C(NC(=O)Cn1c(=O)[nH]c2ccccc2c1=O)C(C)C (stereo not shown) [Compound 2] | > 20 | > 100 | antiviral activity against HIV-1 (in words) (HIV-1NL4-3): no significant antiviral activity; cytotoxicity (in words) (TZM-GFP cells; screened at 100 μM): no cytotoxicity |
| COC(=O)[C@@H]1CCCN1C(=O)CNC(=O)Cn1c(=O)[nH]c2ccccc2c1=O [Compound 3] | > 20 | > 100 | effect on CA hexamer stability (in words) [2]: complete loss of the CA hexamer stabilizing effect |
| COC(=O)[C@@H]1CCCN1C(=O)[C@H](Cc1cccc2cc[nH]c12)NC(=O)Cn1c(=O)[nH]c2ccccc2c1=O [Compound 4] | > 20 | < 100 | – |
| COC(=O)[C@@H]1CCCN1C(=O)[C@H](Cc1cccc2cc[nH]c12)NC(=O)Cn1c(=O)[nH]c2ccccc2c1=O [Compound 5] | – | – | EC50 (HIV-1NL4-3; TZM-GFP cells, MOI = 1, 48 h, mean ± standard deviation, at least two independent experiments): > 20 µM; CC50 (TZM-GFP cells): > 100 µM |
| COC(=O)[C@@H]1CCCN1C(=O)[C@H](CSCc1ccccc1)NC(=O)Cn1c(=O)[nH]c2ccccc2c1=O [Compound 6] | > 20 | > 100 | effect on CA hexamer stability (in words) [2]: no such effect was observed |
| CCC(C)[C@H](NC(=O)Cn1c(=O)[nH]c2ccccc2c1=O)C(=O)N1CCC[C@H]1C(=O)OC (stereo partly shown) [Compound 7] | > 20 | > 100 | effect on CA hexamer stability (in words) [2]: no such effect was observed |
| O=C(Cn1c(=O)[nH]c2ccccc2c1=O)N[C@@H](CSCc1ccccc1)C(=O)N1CCC[C@H]1C(=O)Nc1ccccc1 [Compound 8] | > 20 | 44 ± 5 | – |
| O=C(Cn1c(=O)[nH]c2ccccc2c1=O)N[C@@H](Cc1cccc2cc[nH]c12)C(=O)N1CCC[C@H]1C(=O)Nc1ccccc1 [Compound 9] | > 20 | > 100 | – |
| O=C(Cn1c(=O)[nH]c2ccccc2c1=O)N[C@@H](Cc1ccccc1)C(=O)N1CCC[C@H]1C(=O)Nc1ccccc1 [Compound 10] | 1.6 ± 0.1 | > 100 | half-life at 1 µM ([3]; pH 7.4, mouse liver microsomes, 1 µM compound, NADPH, read-out: Phase I metabolic stability t1/2, MLM): 2.9 min; half-life at 1 µM ([3]; pH 7.4, with Cobicistat 0.5 µM (CYP3A inhibitor), mouse liver microsomes, in the presence of CYP3A inhibitor Cobicistat 0.5 µM, read-out: Phase I metabolic stability t1/2, MLM (+Cobi)): 85 min; antiviral potency (EC50), fold less than PF74 (HIV-1NL4-3; relative to PF74 EC50 = 0.61 μM): 2.5 fold; antiviral activity against HIV-1 (in words) (HIV-1NL4-3): significant anti-HIV-1 activities; half-life (t1/2) in HLMs, fold longer than PF74 ([4]; HLMs, relative to PF74): 44 fold; half-life at 1 µM ([4]; pH 7.4, with Cobicistat 0.5 µM (CYP3A inhibitor), in the presence of CYP3A inhibitor Cobicistat 0.5 µM, read-out: Phase I metabolic stability t1/2, HLM (+Cobi)): > 120 min; half-life at 1 µM ([4]; pH 7.4, 1 µM compound, NADPH, read-out: Phase I metabolic stability t1/2, HLM): 31 min; effect on CA hexamer stability (in words) [2]: moderate CA hexamer stabilizing effects |
| CN(C(=O)[C@H](Cc1ccccc1)NC(=O)Cn1c(=O)[nH]c2ccccc2c1=O)c1ccccc1 [Compound 11] | 6.9 ± 0.8 | > 100 | antiviral activity against HIV-1 (in words) (HIV-1NL4-3): significant anti-HIV-1 activities; effect on CA hexamer stability (in words) [2]: moderate CA hexamer stabilizing effects |
| O=C(Cn1c(=O)[nH]c2ccccc2c1=O)N[C@@H](Cc1ccccc1)C(=O)Nc1ccccc1 [Compound 12] | – | – | EC50 (HIV-1NL4-3): > 20 µM; antiviral activity against HIV-1 (in words) (HIV-1NL4-3): did not show activity in either assay; CC50 (TZM-GFP cells): < 100 µM; effect on CA hexamer stability (in words) [2]: did not show activity in either assay |
| CN(C(=O)[C@H](Cc1ccccc1)NC(=O)Cn1c(=O)[nH]c2ccccc2c1=O)c1ccc(F)cc1 [Compound 13] | – | – | EC50 (HIV-1NL4-3): 8 ± 1.3 µM; antiviral activity against HIV-1 (in words) (HIV-1NL4-3): significant anti-HIV-1 activities; CC50 (TZM-GFP cells): > 100 µM; effect on CA hexamer stability (in words) [2]: moderate CA hexamer stabilizing effects |
| CC(C)C[C@H](NC(=O)Cn1c(=O)[nH]c2ccccc2c1=O)C(=O)N(C)c1ccccc1 [Compound 14] | – | – | EC50 (HIV-1NL4-3): > 20 µM; CC50 (TZM-GFP cells): > 100 µM |
| CC(C)C[C@H](NC(=O)Cn1c(=O)[nH]c2ccccc2c1=O)C(=O)Nc1ccccc1 [Compound 15] | – | – | EC50 (HIV-1NL4-3): > 20 µM; CC50 (TZM-GFP cells): > 100 µM |
| Cc1ccc(N(C)C(=O)[C@@H](NC(=O)Cn2c(=O)[nH]c3ccccc3c2=O)C(C)(C)C)cc1 [Compound 16] | – | – | EC50 (HIV-1NL4-3): > 20 µM; CC50 (TZM-GFP cells): > 100 µM |
| CC(C)(C)[C@H](NC(=O)Cn1c(=O)[nH]c2ccccc2c1=O)C(=O)Nc1ccccc1 [Compound 17] | – | – | EC50 (HIV-1NL4-3): > 20 µM; CC50 (TZM-GFP cells): > 100 µM |
| CCC(C)[C@H](NC(=O)Cn1c(=O)[nH]c2ccccc2c1=O)C(=O)N(C)c1ccccc1 (stereo partly shown) [Compound 18] | – | – | EC50 (HIV-1NL4-3): > 20 µM; CC50 (TZM-GFP cells): > 100 µM |
| CCC(C)[C@H](NC(=O)Cn1c(=O)[nH]c2ccccc2c1=O)C(=O)Nc1ccccc1 (stereo partly shown) [Compound 19] | – | – | EC50 (HIV-1NL4-3): > 20 µM; CC50 (TZM-GFP cells): > 100 µM |
| CCC(C)[C@H](NC(=O)Cn1c(=O)[nH]c2ccccc2c1=O)C(=O)N(C)c1ccc(Cl)cc1 (stereo partly shown) [Compound 20] | – | – | EC50 (HIV-1NL4-3): > 20 µM; CC50 (TZM-GFP cells): > 100 µM |

| SMILES | EC50 (HIV-1NL4-3; [5]) [µM] | CC50 at 72 h (in vitro) [µM] | further results |
| --- | --- | --- | --- |
| CCC(C)[C@H](NC(=O)Cn1c(=O)[nH]c2ccccc2c1=O)C(=O)Nc1ccc(-c2nnn[nH]2)cc1 (stereo partly shown) [Compound 21] | – | – | EC50 (HIV-1NL4-3): > 20 µM; CC50 (TZM-GFP cells): > 100 µM |
| O=C(Cn1c(S)nnc1-c1ccccc1)NNc1ccccn1 [Compound 22] | > 20 | > 100 | – |
| O=C(Cn1c(S)nnc1-c1ccccc1)NNc1ccccc1 [Compound 23] | > 20 | > 100 | – |
| O=C(Cn1c(S)nnc1-c1ccccc1)NNc1ccc(F)cc1 [Compound 24] | > 20 | > 100 | – |
| N#Cc1ccc(NNC(=O)Cn2c(S)nnc2-c2ccccc2)cc1 [Compound 25] | > 20 | > 100 | – |
| N#Cc1cccc(NNC(=O)Cn2c(S)nnc2-c2ccccc2)c1 [Compound 26] | > 20 | > 100 | – |
| Cc1ccc(-c2nnc(S)n2CC(=O)NNc2ccccc2)cc1 [Compound 27] | > 20 | ~100 | – |
| Cc1ccc(-c2nnc(S)n2CC(=O)NNc2ccc(F)cc2)cc1 [Compound 28] | > 20 | > 100 | – |
| Cc1ccc(-c2nnc(S)n2CC(=O)NNc2ccc(C#N)cc2)cc1 [Compound 29] | > 20 | > 100 | – |
| Cc1ccc(-c2nnc(S)n2CC(=O)NNc2ccc(-c3ccccc3)cc2)cc1 [Compound 30] | > 20 | > 100 | – |
| Cc1ccc(-c2nnc(S)n2CC(=O)NNc2ccccn2)cc1 [Compound 31] | > 20 | > 100 | – |
| Cc1ccccc1-c1nnc(S)n1CC(=O)NNc1ccccc1 [Compound 32] | > 20 | > 100 | – |
| Cc1ccc(NNC(=O)Cn2c(S)nnc2-c2ccccc2C)cc1 [Compound 33] | > 20 | > 100 | – |
| Cc1ccccc1-c1nnc(S)n1CC(=O)NNc1ccc(C#N)cc1 [Compound 34] | > 20 | > 100 | – |
| O=C(Cn1c(S)nnc1-c1cccc2ccccc12)NNc1ccccc1 [Compound 35] | > 20 | > 100 | – |
| O=C(Cn1c(S)nnc1-c1ccccc1)NNc1ccc(-c2ccccc2)cc1 [Compound 36] | > 20 | > 100 | – |
| Cc1ccc(NNC(=O)Cn2c(S)nnc2-c2cccc3ccccc23)cc1 [Compound 37] | > 20 | > 100 | – |
| N#Cc1ccc(NNC(=O)Cn2c(S)nnc2-c2cccc3ccccc23)cc1 [Compound 38] | > 20 | > 100 | – |
| CN(NC(=O)Cn1c(S)nnc1-c1ccccc1)c1ccccc1 [Compound 39] | > 20 | > 50 | – |
